Measurements as given in article PMC12711018, “Structural flexibility of the nicotinamide group of NADH in butanol dehydrogenase YqdH from Fusobacterium nucleatum” (PLOS One, 2025).

Target: T1, FnYqdH (butanol dehydrogenase YqdH) (Fusobacterium nucleatum, UniProt Q8R612)
T1 construct: gene FN1415; recombinant from pPRO-EX-HTA in E. coli BL21 (DE3); His6 tag removed with TEV protease
T1 sequence (Q8R612 1-385): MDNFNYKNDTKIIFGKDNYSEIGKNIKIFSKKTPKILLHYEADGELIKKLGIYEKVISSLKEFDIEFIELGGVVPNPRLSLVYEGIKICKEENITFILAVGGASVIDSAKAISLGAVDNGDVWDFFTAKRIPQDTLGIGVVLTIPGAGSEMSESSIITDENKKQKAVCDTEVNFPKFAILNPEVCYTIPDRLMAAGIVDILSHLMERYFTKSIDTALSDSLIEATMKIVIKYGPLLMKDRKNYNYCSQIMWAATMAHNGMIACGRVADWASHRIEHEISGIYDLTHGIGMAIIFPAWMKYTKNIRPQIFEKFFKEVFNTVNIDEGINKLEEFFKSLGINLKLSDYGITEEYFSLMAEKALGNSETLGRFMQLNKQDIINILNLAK
Assay: X-ray crystallography, crystal soaked with NADH ([…] A)
Format: binding
Conditions: soak 1 min in 10 mM NADH, 2 mM Co2+, 25% glycerol; crystals grown in 0.1 M HEPES pH 7.5, 1.8 M ammonium phosphate; only the ADP part is seen and modelled as ADP, nicotinamide part disordered

NC(=O)C1=CN([C@@H]2O[C@H](COP(=O)(O)OP(=O)(O)OC[C@H]3O[C@@H](n4cnc5c(N)ncnc54)[C@H](O)[C@@H]3O)[C@@H](O)[C@H]2O)C=CC1 [NADH]
X-ray crystallography, crystal soaked with NADH (2.70 A): presence of the adenine and diphosphate groups of the NADH molecule
